What was measured:
[1] = test system: BCL2 (DNA, G4) CGGGCGCGGGAGGAATTGGGCGGGAGC; assay: ethidium bromide displacement, fluorescence; conditions: 100 mM KCl, K+ phosphate; 10 mM potassium phosphate pH 7.0; 5 µM ethidium bromide displaced, 10 µM DNA
[2] = test system: KRAS (DNA, G4) GGGAGGGAGGGAAGGAGGGAGGGAGGGA; assay: UV absorption titration (316 nm); conditions: 100 mM KCl, K+ phosphate; 10 mM potassium phosphate pH 7.0; 10 µM compound titrated with 0–20 µM DNA; one-site fit
[3] = test system: GC rich duplex DNA (DNA, duplex) AGGGTGGGGAGGGT/ACCCTCCCCACCCT; assay: UV absorption titration; conditions: 100 mM KCl, K+ phosphate; 10 mM potassium phosphate pH 7.0; 10 µM compound, 0–20 µM duplex; quadruplex affinity 4–16 fold higher
[4] = test system: VEGFA (DNA, G4) GGGGGCGGGCCGGGGGCGGGGTCCCGGCGGGGCGGAG; assay: fluorescence anisotropy of compound; conditions: 100 mM KCl, K+ phosphate; 10 mM potassium phosphate pH 7.0; 10 µM compound titrated with DNA
[5] = test system: KRAS (DNA, G4) GGGAGGGAGGGAAGGAGGGAGGGAGGGA; assay: CD melting; conditions: 100 mM KCl, K+ phosphate; 10 mM potassium phosphate pH 7.0; 1:2 DNA:compound (10 µM DNA in CD titration); Tm free 67.5
[6] = test system: VEGFA (DNA, G4) GGGGGCGGGCCGGGGGCGGGGTCCCGGCGGGGCGGAG; assay: ethidium bromide displacement, fluorescence; conditions: 100 mM KCl, K+ phosphate; 10 mM potassium phosphate pH 7.0; 5 µM ethidium bromide displaced, 10 µM DNA
[7] = test system: GC rich duplex DNA (DNA, duplex) AGGGTGGGGAGGGT/ACCCTCCCCACCCT; assay: fluorescence anisotropy of compound; conditions: 100 mM KCl, K+ phosphate; 10 mM potassium phosphate pH 7.0; 10 µM compound, 0–20 µM duplex
[8] = test system: BCL2 (DNA, G4) CGGGCGCGGGAGGAATTGGGCGGGAGC; assay: UV absorption titration (316 nm); conditions: 100 mM KCl, K+ phosphate; 10 mM potassium phosphate pH 7.0; 10 µM compound titrated with 0–20 µM DNA; one-site fit
[9] = test system: VEGFA (DNA, G4) GGGGGCGGGCCGGGGGCGGGGTCCCGGCGGGGCGGAG; assay: UV absorption titration (316 nm); conditions: 100 mM KCl, K+ phosphate; 10 mM potassium phosphate pH 7.0; 10 µM compound titrated with 0–20 µM DNA; one-site fit
[10] = test system: KRAS (DNA, G4) GGGAGGGAGGGAAGGAGGGAGGGAGGGA; assay: fluorescence anisotropy of compound; conditions: 100 mM KCl, K+ phosphate; 10 mM potassium phosphate pH 7.0; 10 µM compound titrated with DNA
[11] = test system: KRAS (DNA, G4) GGGAGGGAGGGAAGGAGGGAGGGAGGGA; assay: ITC; conditions: 100 mM KCl, K+ phosphate; 10 mM potassium phosphate pH 7.0, 25 °C; 100 µM DNA injected into 10 µM compound; one set of sites
[12] = test system: VEGFA (DNA, G4) GGGGGCGGGCCGGGGGCGGGGTCCCGGCGGGGCGGAG; assay: CD melting; conditions: 100 mM KCl, K+ phosphate; 10 mM potassium phosphate pH 7.0; 1:2 DNA:compound (10 µM DNA in CD titration); Tm free 67.3
[13] = test system: BCL2 (DNA, G4) CGGGCGCGGGAGGAATTGGGCGGGAGC; assay: CD melting; conditions: 100 mM KCl, K+ phosphate; 10 mM potassium phosphate pH 7.0; 1:2 DNA:compound (10 µM DNA in CD titration); Tm free 57.1
[14] = test system: GC rich duplex DNA (DNA, duplex) AGGGTGGGGAGGGT/ACCCTCCCCACCCT; assay: ITC; conditions: 100 mM KCl, K+ phosphate; 10 mM potassium phosphate pH 7.0, 25 °C; 100 µM duplex injected into 10 µM compound
[15] = test system: VEGFA (DNA, G4) GGGGGCGGGCCGGGGGCGGGGTCCCGGCGGGGCGGAG; assay: ITC; conditions: 100 mM KCl, K+ phosphate; 10 mM potassium phosphate pH 7.0, 25 °C; 100 µM DNA injected into 10 µM compound; one set of sites
[16] = test system: BCL2 (DNA, G4) CGGGCGCGGGAGGAATTGGGCGGGAGC; assay: fluorescence anisotropy of compound; conditions: 100 mM KCl, K+ phosphate; 10 mM potassium phosphate pH 7.0; 10 µM compound titrated with DNA
[17] = test system: BCL2 (DNA, G4) CGGGCGCGGGAGGAATTGGGCGGGAGC; assay: ITC; conditions: 100 mM KCl, K+ phosphate; 10 mM potassium phosphate pH 7.0, 25 °C; 100 µM DNA injected into 10 µM compound; one set of sites
[18] = test system: KRAS (DNA, G4) GGGAGGGAGGGAAGGAGGGAGGGAGGGA; assay: ethidium bromide displacement, fluorescence; conditions: 100 mM KCl, K+ phosphate; 10 mM potassium phosphate pH 7.0; 5 µM ethidium bromide displaced, 10 µM DNA

- binding [1]: yes
- KD [2]: 720 ± 200 nM
- KD [3]: 8330 ± 400 nM
- KD [4]: 250 nM
- ∆Tm [5]: 4.6 °C
- binding [6]: yes
- KD [7]: 6140 ± 2000 nM
- KD [8]: 1920 ± 700 nM
- KD [9]: 510 ± 300 nM
- KD [10]: 1500 nM
- KD [11]: 870 nM
- ∆Tm [12]: 3.3 °C
- ∆Tm [13]: 16.2 °C
- KD [14]: 4330 nM
- KD [15]: 980 nM
- KD [16]: 3200 nM
- KD [17]: 600 nM
- binding [18]: yes
Compound: COc1ccc2c(c[n+](C)c3c4cc5c(cc4ccc23)OCO5)c1OC

Reference: PMC5244364 (2017)
